Tests used:
[1] = system: advanced solid tumors and non-Hodgkin's lymphoma; set-up: method as in PMID 27672108; conditions: cited from earlier work
[2] = system: patients with advanced solid tumors and non-Hodgkin's lymphomas; conditions: cited from earlier work
[3] = system: class I PI3K; conditions: compared with the p110β and p110γ isoforms; cited from earlier work
[4] = system: Japanese patients with advanced or refractory solid tumors; assay: Phase I safety and tolerability: adverse events (NCI CTCAE v4.03), DLT, MTD
Description: (§1) Dosing on days 8 and 15 was permitted within a window of ±1 day if necessary, and dosing was considered missed if delayed by more than 1 day. Dose delays of up to 2 weeks were permitted for day 1 of cycle 2 or later, although for days 8 and 15 of cycle 2 and subsequent cycles, dosing within a window of ±3 days was permitted, except for in cycle 3, where dosing was to be administered within ±1 day of days 8 and 15.
(§2) Patients were enrolled into cohort 1 and were evaluated for the occurrence of a dose-limiting toxicity (DLT) as defined by the National Cancer Institute Common Terminology Criteria for Adverse Events version 4.03. […] Completion of cycle 1 in cohort 1 constituted study completion.
(§3) Protocol-defined DLTs included non-hematologic adverse events of grade ≥3. Hyperglycemia defined as a DLT was to be determined based on serum glucose values. Hematologic DLTs were defined as grade 4 neutropenia for ≥3 days, an absolute neutrophil count <1000 with fever ≥38.5 °C, and grade 4 thrombocytopenia. Patients with non-hematologic DLTs were to discontinue study treatment.
(§4) Screening comprised: provision of written, informed consent; demographics; baseline characteristics; concomitant medications; safety assessments (adverse events [defined as any new finding not present in the patient’s medical history, or a worsening of a prior medical history finding], vital signs, laboratory tests, physical examination, 12-lead electrocardiogram, multigated acquisition scan, or echocardiogram); tumor measurements by computed tomography or magnetic resonance imaging; disease assessment as defined by RECIST version 1.1; ophthalmologic examination; chest computed tomography; and ECOG PS assessment. The following assessments were also performed on cycle 1, day 1: safety; ECOG PS assessment; concomitant medications; blood samples for PK analysis; serum samples for glucose analysis; serum insulin; urinalysis; serum ketones; and post-dose echocardiogram. Safety assessments, blood pressure measurements, blood sampling for PK analysis, and urinalysis were also performed on days 8 and 15 of cycle 1.

[5] = as above; conditions: human, in vivo, iv
Description: as §1, §2, §3, §4

Which results are given for `COc1c(OCCCN2CCOCC2)ccc2c1N=C(NC(=O)c1cnc(N)nc1)N1CCN=C21` [copanlisib, Copanlisib]?
Objective response rate ([1]; 25 patients in solid-tumor expansion cohort treated at the MTD): 12%; Disease control rate ([1]; advanced solid-tumor expansion cohort): 44%; Antitumor activity in patients with non-Hodgkin's lymphoma ([1]; first-in-human study): seven out of nine patients; Grade 3 hypertension ([2]; Patnaik et al. study): 19%; Incidence of all-grade hypertension ([2]; Patnaik et al. study): 30%; Maximum tolerated dose (MTD) ([2]; first-in-human Phase I study, non-Japanese patients, once weekly): 0.8 mg/kg; Patients with grade ≥3 elevated aminotransferase levels ([2]; first-in-human study): < 10%; Time of hyperglycemia peak after the start of infusion ([2]; first-in-human study): 5 to 8 h; Time of hypertension peak after the start of infusion ([2]; first-in-human study): 1 to 2 h; PI3K isoform preference [3]: preferential activity against the p110α and p110δ isoforms of PI3K; Treatment-emergent AE of all grades, irrespective of causality: Flu-like symptoms ([4]; Cohort 1, 0.4 mg/kg (n = 3)): 0 n (%); Treatment-emergent AE of all grades, irrespective of causality: Flu-like symptoms ([4]; Cohort 2, 0.8 mg/kg (n = 7)): 2 (28.6) n (%); Treatment-emergent AE of all grades, irrespective of causality: Flu-like symptoms ([4]; Total (N = 10)): 2 (20.0) n (%); AEs leading to permanent discontinuation of study drug ([4]; human, in vivo): 2 (20.0) n (%); Adverse events leading to study discontinuation ([4]; human, in vivo): 20.0%; Any AE ([4]; human, in vivo): 10 (100) n (%); Any drug-related AE ([4]; human, in vivo): 10 (100) n (%); Any serious AE ([4]; human, in vivo): 3 (30.0) n (%); Grade 3 AE ([4]; human, in vivo): 5 (50.0) n (%); Grade 3 drug-related AE ([4]; human, in vivo): 2 (20.0) n (%); Grade 3 hypertension ([4]; human, in vivo): no reports of grade 3 hypertension; Grade 4 AE ([4]; human, in vivo): 1 (10.0) n (%); Hematologic and biochemical toxicity event: anemia ([4]; human, in vivo): 90.0%; Hematologic and biochemical toxicity event: hypoalbuminemia ([4]; human, in vivo): 90.0%; Hematologic and biochemical toxicity event: lymphocytopenia ([4]; human, in vivo): 90%; TEAE of all grades irrespective of causality: constipation ([4]; human, in vivo): 50.0%; TEAE of all grades irrespective of causality: hyperglycemia ([4]; human, in vivo): 80.0%; TEAEs of grade 3 as worst grade ([4]; human, in vivo): 50.0%; TEAEs of grade 3 as worst grade considered drug-related ([4]; human, in vivo): 20.0%; Treatment-emergent AE of all grades, irrespective of causality: Acneiform rash ([4]; human, in vivo): 3 (30.0) n (%); Treatment-emergent AE of all grades, irrespective of causality: Anemia ([4]; human, in vivo): 3 (30.0) n (%); Treatment-emergent AE of all grades, irrespective of causality: Anorexia ([4]; human, in vivo): 3 (30.0) n (%); Treatment-emergent AE of all grades, irrespective of causality: Constipation ([4]; human, in vivo): 5 (50.0) n (%); Treatment-emergent AE of all grades, irrespective of causality: Cough ([4]; human, in vivo): 2 (20.0) n (%); Treatment-emergent AE of all grades, irrespective of causality: Fever ([4]; human, in vivo): 4 (40.0) n (%); Treatment-emergent AE of all grades, irrespective of causality: Hyperglycemia ([4]; human, in vivo): 8 (80.0) n (%); Treatment-emergent AE of all grades, irrespective of causality: Hypertension ([4]; human, in vivo): 7 (70.0) n (%); Treatment-emergent AE of all grades, irrespective of causality: Increased ALP ([4]; human, in vivo): 4 (40.0) n (%); Treatment-emergent AE of all grades, irrespective of causality: Increased ALT ([4]; human, in vivo): 3 (30.0) n (%); Treatment-emergent AE of all grades, irrespective of causality: Increased AST ([4]; human, in vivo): 2 (20.0) n (%); Treatment-emergent AE of all grades, irrespective of causality: Insomnia ([4]; human, in vivo): 2 (20.0) n (%); Treatment-emergent AE of all grades, irrespective of causality: Investigations, other ([4]; human, in vivo): 4 (40.0) n (%); Treatment-emergent AE of all grades, irrespective of causality: Leukopenia ([4]; human, in vivo): 4 (40.0) n (%); Treatment-emergent AE of all grades, irrespective of causality: Lymphocytopenia ([4]; human, in vivo): 4 (40.0) n (%); Treatment-emergent AE of all grades, irrespective of causality: Malaise ([4]; human, in vivo): 2 (20.0) n (%); Treatment-emergent AE of all grades, irrespective of causality: Nausea ([4]; human, in vivo): 3 (30.0) n (%); Treatment-emergent AE of all grades, irrespective of causality: Neutropenia ([4]; human, in vivo): 4 (40.0) n (%); Treatment-emergent AE of all grades, irrespective of causality: Oral mucositis ([4]; human, in vivo): 2 (20.0) n (%); Treatment-emergent AE of all grades, irrespective of causality: Pruritus ([4]; human, in vivo): 2 (20.0) n (%); Treatment-emergent AE of all grades, irrespective of causality: Tumor pain ([4]; human, in vivo): 4 (40.0) n (%); AEs leading to dose modification ([4]; human, in vivo, 28 days): 1 (33.3) n (%); Patients with dose-limiting toxicity (DLT) ([4]; human, in vivo, 28 days): No patients treated at 0.4 mg/kg experienced a dose-limiting toxicity; Cases of colitis ([4]; in vivo): no cases of colitis; Deaths on study ([4]; in vivo): No deaths on study were reported; Hematologic and biochemical toxicity event: hyperglycemia ([4]; in vivo): all ten patients; Hematologic and biochemical toxicity event: increased creatinine ([4]; in vivo): all ten patients; Patients with dose-limiting toxicity (DLT) ([4]; in vivo): No patients experienced DLTs; Patients with grade ≥3 elevated aminotransferase levels ([4]; in vivo): Two patients; Relationship to study drug: grade 3 Anemia ([4]; in vivo): Not likely to be related; Relationship to study drug: grade 3 Diarrhea ([4]; in vivo): Possibly related; Relationship to study drug: grade 3 Hepatobiliary disorder ([4]; in vivo): Not likely to be related; Relationship to study drug: grade 3 Hyperglycemia ([4]; in vivo): Possibly related; Relationship to study drug: grade 3 Increased ALP ([4]; in vivo): Not likely to be related; Relationship to study drug: grade 3 Increased ALT ([4]; in vivo): Not likely to be related; Relationship to study drug: grade 3 Insomnia ([4]; in vivo): Not likely to be related; Relationship to study drug: grade 3 Lymphocytopenia ([4]; in vivo): Possibly related; Relationship to study drug: grade 3 Stroke ([4]; in vivo): Not likely to be related; Relationship to study drug: grade 4 Increased AST ([4]; in vivo): Not likely to be related; Grade 5 adverse events ([4]; irrespective of causality): No grade 5 adverse events were reported; MTD at 28 days [5]: 0.8 mg/kg
